{
  "source": "patent US20220023306A1",
  "about": "“USE OF A PPAR-DELTA AGONIST IN THE TREATMENT OF FATTY ACID OXIDATION DISORDERS (FAOD)” (Reneo Pharmaceuticals, Inc., priority 2019, published 2022)",
  "origin": "cited, not measured here",
  "key": {"VLCAD": {"system": "VLCAD", "settings": "VLCAD deficient cell line FB833; cited from earlier work"}, "[1]": {"system": "fibroblasts derived from patients with VLCAD, LCHAD and TFP deficiencies", "settings": "cited from earlier work"}, "CPT2-deficient myoblasts": {"system": "CPT2-deficient myoblasts", "settings": "cited from earlier work; for FAO: CPT2-deficient myoblasts"}, "CPT2": {"system": "CPT2", "settings": "cultured patient fibroblasts carrying mild mutations of the CPT2 gene; cited from earlier work"}, "control myoblasts": {"system": "control myoblasts", "settings": "cited from earlier work"}},
  "note": "Where two headings read alike, the source gives them in different places.",
  "data": [
    {"smiles": "Cc1cc(SCc2sc(-c3ccc(C(F)(F)F)cc3)nc2C)ccc1OCC(=O)O", "note": "[GW501516, 2-[2-Methyl-4-[[[4-methyl-2-[4-(trifluoromethyl)phenyl]-5-thiazolyl]methyl]thio]phenoxy]acetic acid]", "values": [
      {"measurement": "VLCAD enzyme activity", "setting": "VLCAD", "value": "increase"}
    ]},
    {"smiles": "Cc1cnc(-c2ccc(C(F)(F)F)cc2)n1Cc1ccccc1OCCC[C@@H](C)CC(=O)O", "note": "[MA-0211]", "values": [
      {"measurement": "fatty acid oxidation", "setting": "[1]; fibroblasts from patients with LCHAD deficiency", "value": "improvements"},
      {"measurement": "fatty acid oxidation", "setting": "[1]; fibroblasts from patients with TFP deficiency", "value": "improvements"},
      {"measurement": "fatty acid oxidation", "setting": "[1]; fibroblasts from patients with VLCAD deficiency", "value": "improvements"}
    ]},
    {"smiles": "CC(C)(Sc1ccc(CCN(CCCCC2CCCCC2)C(=O)NC2CCCCC2)cc1)C(=O)O", "note": "[GW 7647]", "values": [
      {"measurement": "FAO", "setting": "CPT2-deficient myoblasts", "value": "no effect"}
    ]},
    {"smiles": "CC(C)(Oc1ccc(CCNC(=O)c2ccc(Cl)cc2)cc1)C(=O)O", "note": "[bezafibrate, 2-(4-{2-[(4-Chlorobenzoyl)amino]ethyl}phenoxy)-2-methylpropanoic acid]", "values": [
      {"measurement": "enhancement of deficient enzyme (CPT2)", "setting": "CPT2", "value": "enhancement"},
      {"measurement": "FAO", "setting": "CPT2-deficient myoblasts", "value": "restore"}
    ]},
    {"smiles": "Cc1cc(SCc2sc(-c3ccc(C(F)(F)F)c(F)c3)nc2C)ccc1OCC(=O)O", "note": "[GW0742, [4-[[[2-[3-Fluoro-4-(trifluoromethyl)phenyl]-4-methyl-5-thiazolyl]methyl]thio]-2-methylphenoxy]acetic acid]", "values": [
      {"measurement": "VLCAD enzyme activity", "setting": "VLCAD", "value": "increase"}
    ]},
    {"smiles": "CCCc1c(OCCCOc2ccc(OCC(=O)O)cc2)ccc(C(C)=O)c1O", "note": "[L-165,0411, [4-[3-(4-Acetyl-3-hydroxy-2-propylphenoxy)propoxy]phenoxy]acetic acid]", "values": [
      {"measurement": "VLCAD enzyme activity", "setting": "VLCAD", "value": "increase"}
    ]},
    {"smiles": "Cc1cc(SCc2sc(-c3ccc(C(F)(F)F)c(F)c3)nc2C)ccc1OCC(=O)O", "note": "[GW 072]", "values": [
      {"measurement": "long-chain acylcarnitine production", "setting": "CPT2-deficient myoblasts; CPT2-deficient cells", "value": "normalized"},
      {"measurement": "residual CPT2 activity", "setting": "CPT2-deficient myoblasts; CPT2-deficient cells", "value": "increased"},
      {"measurement": "FAO", "setting": "CPT2-deficient myoblasts", "value": "restore"},
      {"measurement": "FAO", "setting": "control myoblasts", "value": "stimulated"}
    ]}
  ]
}
